The text below walks through data of patent US20090124672A1 (priority 2007, published 2009).

In experiment [1] the target is T1, hALDH2 (recombinant human mitochondria ALDH) (Homo sapiens, UniProt P05091).
T1 sequence (P05091 18-517): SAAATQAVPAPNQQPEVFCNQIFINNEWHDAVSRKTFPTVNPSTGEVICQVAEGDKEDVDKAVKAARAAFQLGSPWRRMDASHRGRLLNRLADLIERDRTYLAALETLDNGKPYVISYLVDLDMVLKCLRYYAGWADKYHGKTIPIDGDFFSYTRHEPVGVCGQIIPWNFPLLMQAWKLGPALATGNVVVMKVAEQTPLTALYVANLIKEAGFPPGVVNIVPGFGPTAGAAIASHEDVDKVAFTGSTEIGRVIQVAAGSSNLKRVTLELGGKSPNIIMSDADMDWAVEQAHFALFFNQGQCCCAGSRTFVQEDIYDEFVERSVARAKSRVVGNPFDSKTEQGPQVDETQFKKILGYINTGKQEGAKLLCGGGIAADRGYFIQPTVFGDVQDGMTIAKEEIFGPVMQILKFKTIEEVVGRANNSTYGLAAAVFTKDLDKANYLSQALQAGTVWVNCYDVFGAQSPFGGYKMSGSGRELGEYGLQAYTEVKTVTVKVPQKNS
The experiment can be described thus: ALDH2 inhibition assay (NADH formation, formaldehyde substrate). The experiment is classed as biochemical. The settings on record: for inhibition at 1 µM: read-out: hALDH2 inhibition (IC50 hALDH2 column). How it is done: ALDH2 inhibition assays were performed in sodium phosphate buffer (50 mM, pH 7.4) containing 1.2 mM NAD^+ (Sigma N7004), 1 nM hALDH2 (recombinant human mitochondria ALDH), various concentrations of test compounds (from 0.03 nM to 1000 nM), and 0.15 mM freshly prepared formaldehyde solution (Ladd Research 20295). Reactions were initiated by the addition of formaldehyde and rates were recorded by monitoring NADH formation in a temperature controlled (25° C.) FluoroMax-2 Fluorimeter with excitation and emission wavelengths set at 340 and 460 nm, respectively. […] Normally, IC50 values were determined by fitting concentration-inhibition data to sigmoidal dose-response curves with two-floating parameters: IC50 and Hill coefficient. When tight binding situation was suspected, apparent Ki values were estimated by fitting dose-response data to Morrison's equation [Methods in Enzymology 63, 437-467, 1979].

The target of experiment [2] is T2, hMAO-B (Homo sapiens, UniProt P27338).
T2 construct: purchased Sigma M7441
T2 sequence (P27338 1-520): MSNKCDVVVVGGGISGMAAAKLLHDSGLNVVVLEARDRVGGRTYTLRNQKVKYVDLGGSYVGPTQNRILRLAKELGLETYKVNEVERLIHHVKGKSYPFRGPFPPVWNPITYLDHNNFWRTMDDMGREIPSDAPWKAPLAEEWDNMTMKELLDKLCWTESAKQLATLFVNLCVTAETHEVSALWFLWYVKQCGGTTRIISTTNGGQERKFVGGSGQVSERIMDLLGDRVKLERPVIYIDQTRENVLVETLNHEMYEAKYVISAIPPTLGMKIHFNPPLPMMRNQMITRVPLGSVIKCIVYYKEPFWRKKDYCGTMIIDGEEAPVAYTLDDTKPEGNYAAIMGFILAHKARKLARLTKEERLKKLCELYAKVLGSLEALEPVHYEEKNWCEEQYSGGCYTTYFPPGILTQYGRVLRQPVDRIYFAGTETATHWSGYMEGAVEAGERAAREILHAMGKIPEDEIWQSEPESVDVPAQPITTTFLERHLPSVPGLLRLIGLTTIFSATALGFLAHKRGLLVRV
The experiment can be described thus: MAO-B inhibition assay (Amplex Red, horseradish peroxidase-coupled). It counts as biochemical. The settings on record: for hMAO-B inhibition (IC50 hMAO-B) / inhibition at 10 µM: at 10 μM; for inhibition at 10 µM: read-out: hMAO-B inhibition (IC50 hMAO-B). As for the experimental part: MAO-A (Sigma M7316) and MAO-B (Sigma M7441) inhibition assays were conducted in 96-well micro-plates according to the method described by Zhou et al. [Analytical Biochemistry 253, 169-174, 1997]. Both assays were performed in potassium phosphate buffer (0.1 M, pH 7.5) containing 0.5 mM tyramine (Sigma T2879), 0.12 mM N-acetyl-3,7-dihydrophenoxazine (Amplex Red, Invitrogen A12222), 1.2 unit/ml horseradish peroxidase (Sigma P2088), 0.6 unit/ml MAO-A or 2.5 unit/ml MAO-B, and various concentrations of test compounds (0.1 nM to 10 uM). Reactions were initiated by the addition of a pre-mixed solution of tyramine, horseradish peroxidase and Amplex Red, and were allowed to proceed at 37° C. for 30 min. Enzyme activities were determined by measuring absorbance at 570 nm (SpectralMax Plate reader), absorbance of oxidized Amplex Red generated by this horseradish peroxidase-coupled reaction. Nonspecifically formed products were determined in the presence of 2 and 10 µM clorgyline and deprenyl for MAO-A and MAO-B, respectively. IC50 values were determined by fitting concentration-inhibition data to sigmoidal dose-response curves with two-floating parameters: IC50 and Hill coefficient.

Several values for one entry are separate records, joined by “and”; a condition that tells them apart may be missing. Equal entries are not always repeated.

As usually defined, the IC50 is the concentration needed to halve the response being measured. Regarding “3-(4-hydroxyphenyl)-7-(2-{4-[3-(trifluoromethyl)phenyl]piperazinyl}ethoxy)chromen-4-one [PT-124]”, the IC50 in experiment [1] came to 18 nM. Moreover, in experiment [2], the “hMAO-B inhibition (IC50 hMAO-B)” value stood at 21%.

With “3-(4-hydroxyphenyl)-7-[(5-(3-pyridyl)(1,3,4-oxadiazol-2-yl))ethoxy]chromen-4-one [PT-113]”, the IC50 in experiment [1] worked out at 17 nM. Besides, the “hMAO-B inhibition (IC50 hMAO-B)” value in experiment [2] was 30%.

With “7-({5-[3-fluoro-5-(trifluoromethyl)phenyl](1,2,4-oxadiazol-3-yl)}ethoxy)-3-(4-hydroxyphenyl)chromen-4-one [PT-79]”, in experiment [1], the 50% inhibitory concentration (IC50) was 48 nM. Also, in experiment [2], the “hMAO-B inhibition (IC50 hMAO-B)” value is recorded as 18%.

One may read the inhibition as the change of the read-out against control, counted positive when it falls. As to `O=c1c(-c2ccc(O)cc2)coc2cc(OCc3noc(-c4ccc(F)cc4)n3)ccc12` [PT-11, 7-{[5-(4-fluorophenyl)(1,2,4-oxadiazol-3-yl)]methoxy}-3-(4-hydroxyphenyl)chromen-4-one], the IC50 in experiment [1] was 16 nM and 20 nM. Further, in experiment [2], the inhibition at 10 µM is 35%.

Consider `COC(=O)c1cccc(COc2ccc3c(=O)c(-c4ccc(O)cc4)coc3c2)c1` [PT-33, methyl 3-{[3-(4-hydroxyphenyl)-4-oxochromen-7-yloxy]methyl}benzoate], for which the IC50 in experiment [1] is 150 nM; in experiment [2], 300 nM.

Take `O=c1c(-c2ccc(O)cc2)coc2cc(OCc3cc(-c4cccc(C(F)(F)F)c4)on3)ccc12` [PT-45, 3-(4-hydroxyphenyl)-7-({5-[3-(trifluoromethyl)phenyl]isoxazol-3-yl}methoxy)chromen-4-one]: the IC50 in experiment [1] was found to be 98 nM. Also, in experiment [2], the “hMAO-B inhibition (IC50 hMAO-B)” value turned out to be 7% and the inhibition at 10 µM came to 7%.

On to `COC(=O)c1cnc(COc2ccc3c(=O)c(-c4ccc(O)cc4)coc3c2)o1` [PT-47, methyl 2-{[3-(4-hydroxyphenyl)-4-oxochromen-7-yloxy]methyl}-1,3-oxazole-5-carboxylate], for which the half-maximal inhibitory concentration (IC50) in experiment [1] is 5 nM. Besides, the inhibition at 10 µM in experiment [2] came out at 34%.

On to `O=c1c(-c2ccc(O)cc2)coc2cc(OC[C@H](O)CNCc3cccc(C(F)(F)F)c3)ccc12` [PT-53, 7-[(2R)-2-hydroxy-3-({[3-(trifluoromethyl)phenyl]methyl}amino)propoxy]-3-(4-hydroxyphenyl)chromen-4-one], for which the half-maximal inhibitory concentration (IC50) in experiment [1] turned out to be 16 nM. Besides, in experiment [2], the “hMAO-B inhibition (IC50 hMAO-B)” value is 19% and the inhibition at 10 µM came to 19%.

`O=c1c(-c2ccc(O)cc2)coc2cc(OC[C@H](O)CNCc3cc(F)cc(F)c3)ccc12` [PT-55, 7-((2R)-3-{[(3,5-difluorophenyl)methyl]amino}-2-hydroxypropoxy)-3-(4-hydroxyphenyl)chromen-4-one]: the IC50 in experiment [1] turned out to be 8 nM. In addition, in experiment [2], the “hMAO-B inhibition (IC50 hMAO-B)” value amounted to 14% and the inhibition at 10 µM stood at 14%.

On to `C[C@@H](NCC(=O)COc1ccc2c(=O)c(-c3ccc(O)cc3)coc2c1)c1ccc(F)cc1` [PT-56, 7-(3-{[(1R)-1-(4-fluorophenyl)ethyl]amino}-2-oxopropoxy)-3-(4-hydroxyphenyl)chromen-4-one], for which the half-maximal inhibitory concentration (IC50) in experiment [1] was 8 nM. In addition, the inhibition at 10 µM in experiment [2] stood at 29%.

In the case of `O=c1c(-c2ccc(O)cc2)coc2cc(OCCCc3ccccc3)ccc12` [PT-57, 3-(4-hydroxyphenyl)-7-(3-phenylpropoxy)chromen-4-one], the IC50 in experiment [1] is 20 nM. In addition, in experiment [2], the “hMAO-B inhibition (IC50 hMAO-B)” value was determined as 27% and the inhibition at 10 µM is 27%.

Turning to `O=c1c(-c2ccc(O)cc2)coc2cc(OCc3nnc(-c4cccc(F)c4)o3)ccc12` [PT-58, 7-{[5-(3-fluorophenyl)(1,3,4-oxadiazol-2-yl)]methoxy}-3-(4-hydroxyphenyl)chromen-4-one], the IC50 in experiment [1] came to 11 nM. In addition, the inhibition at 10 µM in experiment [2] was 25%.

For `O=c1c(-c2ccc(O)cc2)coc2cc(OCCc3cccc(C(F)(F)F)c3)ccc12` [PT-59, 3-(4-hydroxyphenyl)-7-{[3-(trifluoromethyl)phenyl]ethoxy}chromen-4-one], the IC50 in experiment [1] is 670 nM. Besides, in experiment [2], the “hMAO-B inhibition (IC50 hMAO-B)” value worked out at 24%.

Regarding `O=c1c(-c2ccc(O)cc2)coc2cc(OCc3nnc(-c4cccc(C(F)(F)F)c4)o3)ccc12` [PT-60, 3-(4-hydroxyphenyl)-7-({5-[3-(trifluoromethyl)phenyl](1,3,4-oxadiazol-2-yl)}methoxy)chromen-4-one], in experiment [1], the IC50 is 42 nM. In addition, the inhibition at 10 µM in experiment [2] was 13%.

Regarding `O=c1c(-c2ccc(O)cc2)coc2cc(OCc3cnc(-c4ccccc4)o3)ccc12` [PT-61, 3-(4-hydroxyphenyl)-7-[(2-phenyl(1,3-oxazol-5-yl))methoxy]chromen-4-one], the IC50 in experiment [1] was 96 nM. Besides, the inhibition at 10 µM in experiment [2] was determined as 17%.

Consider `O=c1c(-c2ccc(O)cc2)coc2cc(OCc3nnc(-c4ccccc4Cl)s3)ccc12` [PT-64, 7-{[5-(2-chlorophenyl)(1,3,4-thiadiazol-2-yl)]methoxy}-3-(4-hydroxyphenyl)chromen-4-one], for which, in experiment [1], the inhibition at 1 µM came out at 43%. The inhibition at 10 µM in experiment [2] came to 8%.

In the case of `Cc1nc(-c2ccc(C(F)(F)F)cc2)sc1COc1ccc2c(=O)c(-c3ccc(C#N)cc3)coc2c1` [PT-65, 4-[7-({4-methyl-2-[4-(trifluoromethyl)phenyl](1,3-thiazol-5-yl)}methoxy)-4-oxochromen-3-yl]benzenecarbonitrile], the inhibition at 1 µM in experiment [1] stood at 30%. Further, the inhibition at 10 µM in experiment [2] turned out to be 25%.

On to `Cc1nc(-c2ccc(C(F)(F)F)cc2)sc1COc1ccc2c(=O)c(-c3ccc(NS(C)(=O)=O)cc3)coc2c1` [PT-66, 3-{4-[(methylsulfonyl)amino]phenyl}-7-({4-methyl-2-[4-(trifluoromethyl)phenyl](1,3-thiazol-5-yl)}methoxy)chromen-4-one], for which the inhibition at 1 µM in experiment [1] turned out to be 48%. In addition, the inhibition at 10 µM in experiment [2] came to 25%.

On to `COc1ccc(-c2coc3cc(OCc4sc(-c5ccc(C(F)(F)F)cc5)nc4C)ccc3c2=O)cn1` [PT-67, 3-(6-methoxy(3-pyridyl))-7-({4-methyl-2-[4-(trifluoromethyl)phenyl](1,3-thiazol-5-yl)}methoxy)chromen-4-one], for which the inhibition at 1 µM in experiment [1] worked out at 25%. The inhibition at 10 µM in experiment [2] was 16%.

Regarding `CS(=O)(=O)Nc1ccc(-c2coc3cc(OCc4nnc(-c5ccc(F)cc5)o4)ccc3c2=O)cc1` [PT-120, 7-{[5-(4-fluorophenyl)(1,3,4-oxadiazol-2-yl)]methoxy}-3-{4-[(methylsulfonyl)amino]-phenyl}chromen-4-one], in experiment [1], the IC50 stood at 276 nM.

As for `Nc1cccc(-c2nnc(COc3ccc4c(=O)c(-c5ccc(O)cc5)coc4c3)o2)c1` [PT-121, 7-{[5-(3-aminophenyl)(1,3,4-oxadiazol-2-yl)]methoxy}-3-(4-hydroxyphenyl)chromen-4-one], in experiment [1], the IC50 was determined as 11 nM.

For `CCOC(=O)c1cnn(CCOc2ccc3c(=O)c(-c4ccc(O)cc4)coc3c2)c1` [PT-122, ethyl 1-{2-[3-(4-hydroxyphenyl)-4-oxochromen-7-yloxy]ethyl}pyrazole-4-carboxylate], the IC50 in experiment [1] came out at 12 nM.
